Measured values reported in ChEMBL document CHEMBL1134004, “Synthesis and in vitro cytotoxicity of novel long chain busulphan analogues” (Bioorg Med Chem Lett, 2001).

How the values were obtained:
Assay type in all cases: functional, cell-based
[1] = tested on: H322; assay: In vitro cytotoxicity causing 50% growth inhibition was determined against H322 (human non small cell lung cancer) cells; conditions: NCI-H322
[2] = tested on: A2780; assay: In vitro cytotoxicity causing 50% growth inhibition was determined against […] (human ovarian cancer)cell line
[3] = tested on: Colon 26; assay: In vitro cytotoxicity causing 50% growth inhibition was determined against C26-10 (murine colon carcinoma) cell line; conditions: Mus musculus
[4] = tested on: WiDr; assay: In vitro cytotoxicity causing 50% growth inhibition was determined against WiDr (human colon carcinoma) cell line
[5] = tested on: Lewis lung carcinoma cell line; assay: In vitro cytotoxicity causing 50% growth inhibition was determined against LL (murine non small cell lung cancer) cell line; conditions: Mus musculus
[6] = tested on: UMSCC22B; assay: In vitro cytotoxicity causing 50% growth inhibition was determined against 22B (human head and neck squamous) cell line

SMILES	IC50 [1]	IC50 [2]	IC50 [3]	IC50 [4]	IC50 [5]	IC50 [6]
CS(=O)(=O)OCCCCOS(C)(=O)=O [BUSULFAN]	> 100 µM	> 100 µM	92.5 µM	> 100 µM	> 100 µM	> 100 µM
CCCCCCCCCCCCCCC(CCOS(C)(=O)=O)COS(C)(=O)=O (stereo not drawn)	25.1 µM	25.9 µM	26.3 µM	24.9 µM	20.8 µM	26.4 µM
CCCCCCCCCCCCCCC(COS(C)(=O)=O)OS(C)(=O)=O (stereo not drawn)	59.7 µM	45.5 µM	31 µM	25.6 µM	28.4 µM	46.5 µM
